Experimental data reported in the supplement of paper PMC7806825.
Values belong to the molecule of their own block, whether it stands above or below them.

Tested on: McpC ligand-binding domain (Salmonella Typhimurium SL1344)
Assay: protein melting temperature (Tm) in presence of compound (degrees C); higher = more thermal stabilisation (possible ligand binding)
Details: compound stock concentration: 10-20 mM, 2 uL in 10 uL reaction

- protein melting temperature (Biolog plate: PM01): 44.9
Compound: OC[C@H]1O[C@@H](O[C@@H]2[C@@H](CO)OC(O)(CO)[C@H]2O)[C@H](O)[C@@H](O)[C@H]1O (mixture of isomers) [Lactulose]

- protein melting temperature (Biolog plate: PM02A): 44.4
Compound: C[N+](C)(C)CC(O)CC(=O)[O-] (racemic) [D,L-Carnitine]

Compound: NCC(O)c1ccc(O)cc1 (racemic) [D,L-Octopamine]
- protein melting temperature (Biolog plate: PM02A): 43.9

- protein melting temperature (Biolog plate: PM05): 43.7
Compound: C[N+](C)(C)CC(O)CC(=O)[O-] (racemic) [DL-Carnitine]

Compound: CCSCCC(N)C(=O)O (racemic) [DL-Ethionine]
- protein melting temperature (Biolog plate: PM04A): 43.9

- protein melting temperature (Biolog plate: PM03B): 45.6
Compound: CC(O)C(N)=O (racemic) [DL-Lactamide]

- protein melting temperature (Biolog plate: PM04A): 44.4
Compound: NC(=O)CCCCC1CCSS1 (racemic) [DL-Lipoamide]

- protein melting temperature (Biolog plate: PM01): 44.5
Compound: O=C(O)CC(O)C(=O)O (racemic) [DL-Malic acid]

- protein melting temperature (Biolog plate: PM05): 43.8
Compound: CC1(O)CCOC(=O)C1 (racemic) [DL-Mevalonic acid Lactone]

- protein melting temperature (Biolog plate: PM03B): 44.3
Compound: CCC(N)C(=O)O (racemic) [DL-a-Amino-N-Butyric acid]

- protein melting temperature (Biolog plate: PM01): 44.6
- protein melting temperature (Biolog plate: PM04A): 44.4
Compound: O=P(O)(O)OC[C@H](O)CO (racemic) [DL-a-Glycerol Phosphate]

- protein melting temperature (Biolog plate: PM04A): 43.7
Compound: CSCCC(NC(C)=O)C(=O)O (racemic) [N-Acetyl-D,L-Methionine]

- protein melting temperature (Biolog plate: PM01): 44.8
Compound: CC(O)CO (stereo not given) [1,2-Propanediol]

- protein melting temperature (Biolog plate: PM04A): 44.5
Compound: OC[C@H]1O[C@@H](S)[C@H](O)[C@@H](O)[C@@H]1O [1-Thio-b-D-Glucose]

- protein melting temperature (Biolog plate: PM02A): 44.2
Compound: CC(O)C(C)O (stereo not given) [2,3-Butanediol]

- protein melting temperature (Biolog plate: PM02A): 43.9
Compound: CC(=O)C(C)=O [2,3-Butanedione]

- protein melting temperature (Biolog plate: PM01): 44.3
Compound: NCCO [2-Aminoethanol]

Compound: NCCP(=O)(O)O [2-Aminoethyl Phosphonic acid]
- protein melting temperature (Biolog plate: PM04A): 43.6

- protein melting temperature (Biolog plate: PM02A): 45.4
Compound: O=C(O)c1ccccc1O [2-Hydroxybenzoic acid]

- protein melting temperature (Biolog plate: PM04A): 44.6
Compound: O=S(=O)(O)CCO [2-Hydroxyethane Sulfonic acid]

- protein melting temperature (Biolog plate: PM01): 43.9
- protein melting temperature (Biolog plate: PM05): 44
Compound: Nc1ncnc2c1ncn2[C@H]1C[C@H](O)[C@@H](CO)O1 [2`-Deoxyadenosine]

- protein melting temperature (Biolog plate: PM05): 44.3
Compound: Nc1ccn([C@H]2C[C@H](O)[C@@H](CO)O2)c(=O)n1 [2`-Deoxycytidine]

- protein melting temperature (Biolog plate: PM05): 43.7
Compound: Nc1nc2c(ncn2[C@H]2C[C@H](O)[C@@H](CO)O2)c(=O)[nH]1 [2`-Deoxyguanosine]

- protein melting temperature (Biolog plate: PM05): 43.9
Compound: O=c1[nH]cnc2c1ncn2[C@H]1C[C@H](O)[C@@H](CO)O1 [2`-Deoxyinosine]

- protein melting temperature (Biolog plate: PM05): 44.4
Compound: O=c1ccn([C@H]2C[C@H](O)[C@@H](CO)O2)c(=O)[nH]1 [2`-Deoxyuridine]

- protein melting temperature (Biolog plate: PM02A): 43.5
Compound: CC(=O)C(C)O (stereo not given) [3-Hydroxy-2-butanone]

- protein melting temperature (Biolog plate: PM02A): 44.5
Compound: O=C[C@@H](O)[C@H](O[C@@H]1O[C@H](CO)[C@H](O)[C@H](O)[C@H]1O)[C@H](O)CO [3-O-b-D-Galactopyranosyl-D-Arabinose]

- protein melting temperature (Biolog plate: PM02A): 43.3
Compound: O=C(O)c1ccc(O)cc1 [4-Hydroxybenzoic acid]

- protein melting temperature (Biolog plate: PM02A): 43.9
Compound: O=C(CO)[C@@H](O)[C@H](O)[C@@H](O)C(=O)O [5-Keto-D-Gluconic acid]

- protein melting temperature (Biolog plate: PM04A): 43.6
Compound: O=C(O)[C@H](O)[C@@H](O)[C@H](O)[C@H](O)COP(=O)(O)O [6-Phospho-Gluconic acid]

- protein melting temperature (Biolog plate: PM05): 43.7
Compound: NC(=O)c1[nH]cnc1N [(5) 4-Amino-Imidazole-4(5)-Carboxamide]

- protein melting temperature (Biolog plate: PM01): 44.6
Compound: CC(=O)CC(=O)O [Acetoacetic acid]

- protein melting temperature (Biolog plate: PM03B): 45.2
- protein melting temperature (Biolog plate: PM05): 44.1
Compound: Nc1[nH]cnc2ncnc1-2 [Adenine]

- protein melting temperature (Biolog plate: PM04A): 43.8
Compound: Nc1ncnc2c1ncn2[C@@H]1O[C@H](CO)[C@@H](O)[C@H]1OP(=O)(O)O [Adenosine 2`-Monophosphate]

- protein melting temperature (Biolog plate: PM04A): 43.9
- protein melting temperature (Biolog plate: PM05): 44.4
Compound: Nc1ncnc2c1ncn2[C@@H]1O[C@@H]2COP(=O)(O)O[C@H]2[C@H]1O [Adenosine 3`,5`-Cyclic Monophosphate]

- protein melting temperature (Biolog plate: PM04A): 44.2
Compound: Nc1ncnc2c1ncn2[C@@H]1O[C@H](CO)[C@@H](OP(=O)(O)O)[C@H]1O [Adenosine 3`-Monophosphate]

- protein melting temperature (Biolog plate: PM04A): 43.9
Compound: Nc1ncnc2c1ncn2[C@@H]1O[C@H](COP(=O)(O)O)[C@@H](O)[C@H]1O [Adenosine 5`-Monophosphate]

- protein melting temperature (Biolog plate: PM01): 43.8
- protein melting temperature (Biolog plate: PM03B): 45.4
- protein melting temperature (Biolog plate: PM05): 44.1
Compound: Nc1ncnc2c1ncn2[C@@H]1O[C@H](CO)[C@@H](O)[C@H]1O [Adenosine]

- protein melting temperature (Biolog plate: PM01): 44.8
Compound: OCC(O)C(O)C(O)CO (stereo not given) [Adonitol]

- protein melting temperature (Biolog plate: PM03B): 44.1
Compound: NCCCCN=C(N)N [Agmatine]

- protein melting temperature (Biolog plate: PM03B): 45
Compound: C[C@H](N)C(=O)N[C@@H](CC(=O)O)C(=O)O [Ala-Asp]

- protein melting temperature (Biolog plate: PM03B): 45.1
Compound: C[C@H](N)C(=O)N[C@@H](CCC(N)=O)C(=O)O [Ala-Gln]

- protein melting temperature (Biolog plate: PM03B): 45.2
Compound: C[C@H](N)C(=O)N[C@@H](CCC(=O)O)C(=O)O [Ala-Glu]

- protein melting temperature (Biolog plate: PM01): 44.9
- protein melting temperature (Biolog plate: PM03B): 45.2
Compound: C[C@H](N)C(=O)NCC(=O)O [Ala-Gly]

- protein melting temperature (Biolog plate: PM03B): 45.3
Compound: C[C@H](N)C(=O)N[C@@H](Cc1cnc[nH]1)C(=O)O [Ala-His]

- protein melting temperature (Biolog plate: PM03B): 45.1
Compound: C[C@H](N)C(=O)N[C@H](C(=O)O)[C@@H](C)O [Ala-Thr]

- protein melting temperature (Biolog plate: PM03B): 44.2
Compound: NC(=O)NC1NC(=O)NC1=O (stereo not given) [Allantoin]

Compound: O=C1NC(=O)C(=O)C(=O)N1 [Alloxan]
- protein melting temperature (Biolog plate: PM03B): 44.3

Compound: N#C[C@H](O[C@@H]1O[C@H](CO[C@@H]2O[C@H](CO)[C@@H](O)[C@H](O)[C@H]2O)[C@@H](O)[C@H](O)[C@H]1O)c1ccccc1 [Amygdalin]
- protein melting temperature (Biolog plate: PM02A): 44.3

- protein melting temperature (Biolog plate: PM02A): 43.7
Compound: OC[C@H]1O[C@@H](Oc2ccc(O)cc2)[C@H](O)[C@@H](O)[C@@H]1O [Arbutin]

- protein melting temperature (Biolog plate: PM03B): 44.2
Compound: NC(=O)NC(N)=O [Biuret]

Compound: O=C(O)CC(Br)C(=O)O (stereo not given) [Bromosuccinic acid]
- protein melting temperature (Biolog plate: PM01): 44.8

- protein melting temperature (Biolog plate: PM04A): 44.4
Compound: CCCCS(=O)(=O)O [Butane Sulfonic acid]

- protein melting temperature (Biolog plate: PM02A): 42.4
Compound: CCCCCCCCCC(=O)O [Capric acid]

- protein melting temperature (Biolog plate: PM02A): 43.3
Compound: CCCCCC(=O)O [Caproic acid]

- protein melting temperature (Biolog plate: PM04A): 44.7
Compound: NC(=O)OP(=O)(O)O [Carbamyl Phosphate]

- protein melting temperature (Biolog plate: PM05): 43.1
Compound: C[N+](C)(C)CCO [Choline]

- protein melting temperature (Biolog plate: PM02A): 43.7
Compound: C/C(=C/C(=O)O)C(=O)O [Citraconic acid]

- protein melting temperature (Biolog plate: PM02A): 44.1
Compound: CC(O)(CC(=O)O)C(=O)O (stereo not given) [Citramalic acid]

- protein melting temperature (Biolog plate: PM04A): 42.9
Compound: N[C@@H](CS)C(=O)NCC(=O)O [Cys-Gly]

- protein melting temperature (Biolog plate: PM04A): 42.8
Compound: NCCS [Cysteamine]

- protein melting temperature (Biolog plate: PM04A): 43.7
Compound: Nc1ccn([C@@H]2O[C@H](CO)[C@@H](O)[C@H]2OP(=O)(O)O)c(=O)n1 [Cytidine 2`-Monophosphate]

- protein melting temperature (Biolog plate: PM04A): 45.4
Compound: Nc1ccn([C@@H]2O[C@H](CO)[C@@H](OP(=O)(O)O)[C@H]2O)c(=O)n1 [Cytidine 3`-Monophosphate]

- protein melting temperature (Biolog plate: PM03B): 44.7
- protein melting temperature (Biolog plate: PM05): 43.9
Compound: Nc1ccn([C@@H]2O[C@H](CO)[C@@H](O)[C@H]2O)c(=O)n1 [Cytidine]

- protein melting temperature (Biolog plate: PM03B): 45.2
- protein melting temperature (Biolog plate: PM05): 44.3
Compound: Nc1cc[nH]c(=O)n1 [Cytosine]

- protein melting temperature (Biolog plate: PM04A): 44.1
Compound: O=C(O)C(CO)OP(=O)(O)O [D-2-Phospho-Glyceric acid]

- protein melting temperature (Biolog plate: PM04A): 44.9
Compound: O=C(O)C(O)COP(=O)(O)O [D-3-Phospho-Glyceric acid]

- protein melting temperature (Biolog plate: PM01): 43.9
- protein melting temperature (Biolog plate: PM03B): 44.9
- protein melting temperature (Biolog plate: PM05): 44
Compound: C[C@@H](N)C(=O)O [D-Alanine]

- protein melting temperature (Biolog plate: PM02A): 43.6
Compound: OC1OC[C@@H](O)[C@@H](O)[C@@H]1O (stereo partly drawn) [D-Arabinose]

- protein melting temperature (Biolog plate: PM02A): 44.4
Compound: OC[C@@H](O)C(O)[C@H](O)CO [D-Arabitol]

- protein melting temperature (Biolog plate: PM03B): 44.8
Compound: NC(=O)C[C@@H](N)C(=O)O [D-Asparagine]

- protein melting temperature (Biolog plate: PM01): 44.2
- protein melting temperature (Biolog plate: PM03B): 44.9
- protein melting temperature (Biolog plate: PM05): 44.4
Compound: N[C@H](CC(=O)O)C(=O)O [D-Aspartic acid]

- protein melting temperature (Biolog plate: PM05): 44.5
Compound: O=C(O)CCCC[C@@H]1SC[C@@H]2NC(=O)N[C@@H]21 [D-Biotin]

- protein melting temperature (Biolog plate: PM01): 44.3
Compound: O=C(CO)[C@@H](O)[C@H](O)[C@H](O)CO [D-Fructose]

- protein melting temperature (Biolog plate: PM02A): 43.3
Compound: C[C@@H](O)[C@H](O)[C@H](O)[C@@H](O)C=O [D-Fucose]

- protein melting temperature (Biolog plate: PM01): 44.8
Compound: OC[C@H]1OC(O)[C@H](O)[C@@H](O)[C@H]1O (stereo partly drawn) [D-Galactose]

- protein melting temperature (Biolog plate: PM01): 44.4
Compound: O=C(O)[C@H]1OC(O)[C@H](O)[C@@H](O)[C@H]1O (stereo partly drawn) [D-Galacturonic acid]

- protein melting temperature (Biolog plate: PM04A): 44.1
Compound: N[C@@H]1[C@@H](O)[C@H](O)[C@@H](COP(=O)(O)O)O[C@@H]1O [D-Glucosamine-6-Phosphate]

- protein melting temperature (Biolog plate: PM01): 44.6
- protein melting temperature (Biolog plate: PM04A): 43.8
Compound: O=C[C@H](O)[C@@H](O)[C@H](O)[C@H](O)COP(=O)(O)O [D-Glucose-6-Phosphate]

- protein melting temperature (Biolog plate: PM03B): 45
- protein melting temperature (Biolog plate: PM05): 44.8
Compound: N[C@H](CCC(=O)O)C(=O)O [D-Glutamic acid]

- protein melting temperature (Biolog plate: PM02A): 44.4
Compound: COC(=O)[C@@H](C)O [D-Lactic acid Methyl Ester]

- protein melting temperature (Biolog plate: PM02A): 44.7
Compound: OC[C@@H](O)[C@@H](O[C@@H]1O[C@H](CO)[C@H](O)[C@H](O)[C@H]1O)[C@H](O)[C@@H](O)CO [D-Lactitol]

- protein melting temperature (Biolog plate: PM03B): 44.3
Compound: NCCCC[C@@H](N)C(=O)O [D-Lysine]

- protein melting temperature (Biolog plate: PM01): 43.6
Compound: O=C(O)C[C@@H](O)C(=O)O [D-Malic acid]

- protein melting temperature (Biolog plate: PM01): 44.7
Compound: OC[C@@H](O)[C@@H](O)[C@H](O)[C@H](O)CO [D-Mannitol]
